According to patent publication US20230295201A1 (Gilead Sciences, Inc., priority 2020, published 2023):
Read-outs that look alike come from different tables or passages of the source.

How the values were obtained:
Format in all cases: cell-based
[1] = test system: RSV A2; assay: RSV NHBE EC50 (RSV A2 antiviral assay in normal human bronchial epithelial cells); details: NHBE cells, RSV A2, 4 days, read-out: RSV NHBE EC50
Description: Normal human bronchial epithelial (NHBE) cells were purchased from Lonza (Walkersville, MD, Cat #CC-2540) and cultured in Bronchial Epithelial Growth Media (BEGM) (Lonza, Walkersville, MD, Cat #CC-3170). The cells were passaged 1-2 times per week to maintain <80% confluency. The NHBE cells were discarded after 6 passages in culture.
To conduct the RSV A2 antiviral assay, NHBE cells were plated in 96-well plates at a density of 7,500 cells per well in BEGM and allowed to attach overnight at 37° C. Following attachment, 100 μL of cell culture media was removed and 3-fold serially diluted compound was added using a Hewlett-Packard D300 Digital Dispenser. The final concentration of DMSO was normalized to 0.05%. Following compound addition, the NHBE cells were infected by the addition of 100 μL of RSV A2 at a titer of 1×10^4.5 tissue culture infectious doses/mL in BEGM and then incubated at 37° C. for 4 days. […] The mixtures were incubated for 10 minutes at 25° C., and the luminescence signal was quantified on an Envision luminescence plate reader.

[2] = test system: HRV16; assay: HRV16 HELA EC50 (cytopathic effect in H1-HeLa cells)
Description: H1-HeLa cells, cultured in complete DMEM medium containing 10% heat-inactivated FBS and 1% Penicillin/Streptomycin, were seeded in 96 well plates at 3000 cells/well one day prior to compound dosing and infection. The antiviral activity of each compound was measured in triplicate. Compounds were added directly to the cell cultures in serial 3-fold dilutions using the HP300 digital dispenser (Hewlett Packard, Palo Alto, CA) immediately prior to infection. The plates were transferred to BSL-2 containment and the appropriate dilution of virus stock, previously determined by titration and prepared in cell culture media, was added to test plates containing cells and serially diluted compounds. Each plate included 6 wells of infected untreated cells and 6 wells of uninfected cells that served as 0% and 100% virus inhibition control, respectively. Following the infection, test plates were incubated for 96 h in a tissue culture incubator set to 33° C./5% CO2. Following incubation, the H1-HeLa cells were removed from incubation and allowed to equilibrate to 25° C. Cell viability was determined by removing 100 μL of culture medium and adding 100 μL of Cell-Titer Glo viability reagent. The mixtures were incubated on a shaker for 10 minutes at 25° C., and the luminescence signal was quantified on an Envision luminescence plate reader.

[3] = test system: RSV strain A2; assay: RSV HEp-2 EC50 (infectious cytopathic cell protection assay); details: HEp-2 cells, RSV A2, 4 days, read-out: RSV HEp-2 EC50
Description: Antiviral activity against RSV is determined using an infectious cytopathic cell protection assay in HEp-2 cells. In this assay, compounds inhibiting viral infection and/or replication produce a cytoprotective effect against the virus-induced cell killing that can be quantified using a cell viability reagent. The techniques used here are novel adaptations of methods described in published literature (Chapman et al., Antimicrob Agents Chemother. 2007, 51(9):3346-53.)
HEp-2 cells are obtained from ATCC (Manassas, VI) and maintained in MEM media supplemented with 10% fetal bovine serum and penicillin/streptomycin. Cells are passaged twice a week and kept at subconfluent stage. Commercial stock of RSV strain A2 (Advanced Biotechnologies, Columbia, MD) is titered before compound testing to determine the appropriate dilution of the virus stock that generates desirable cytopathic effect in HEp-2 cells.
For antiviral tests, HEp-2 cells are grown in large cell culture flasks to near confluency but not fully so. The compounds to be tested are prediluted in DMSO in 384-well compound dilution plates, either in an 8 or 40 sample per plate standardized dose response format. 3-fold serial dilution increments of each test compound are prepared in the plates and test samples are transferred via acoustic transfer apparatus (Echo, Labcyte) at 100 nL per well into cell culture assay 384-well plates. Each compound dilution is transferred in single or quadruplicate samples into dry assay plates, which are stored until assay is ready to go. The positive and negative controls are laid out in opposite on ends of the plate in vertical blocks (1 column).
Subsequently, an infectious mixture is prepared using an appropriate dilution of virus stock previously determined by titration with cells at a density of 50,000/ml and 20 µL/well is added to test plates w/compounds via automation (uFlow, Biotek). Each plate includes negative and positive controls (16 replicates each) to create 0% and 100% virus inhibition standards, respectively. Following the infection with RSV, testing plates are incubated for 4 days in a 37° C. cell culture incubator. After the incubation, a cell viability reagent, Cell TiterGlo (Promega, Madison, WI) is added to the assay plates, which are incubated briefly, and a luminescent readout is measured (Envision, Perkin Elmer) in all the assay plates. The RSV-induced cytopathic effect, percentage inhibition, is determined from the levels of remaining cell viability. […] Various potent anti-RSV tool compounds are used as positive controls for antiviral activity.

[4] = test system: DENV2 replicon; assay: DENV-2 Huh-7 Rep EC50 (replicon luminescence); details: Dengue virus, DENV2, Huh-7, 48 h, Huh-7 replicon cells, 48 hours; read-out: DENV-2 Huh-7 Rep EC50
Description: In 384 well plates (Greiner, Cat #781091), compounds were acoustically transferred at 200 nl per well in a 8 compound (4 replicates) or 40 compound dose response format (3 replicates). For all plates tested, Balapiravir, GS-5734 and NITD008 were included as positive inhibition controls alongside 0% inhibition, DMSO-only negative control wells. Following compound addition, Huh-7 cells containing the DENV2 replicon construct were harvested following standard cell culture procedures and were adjusted to a concentration of 1.25E5 cells/mL in cell culture media composed of cDMEM without genticin. 40 μL of the cell stock was then added to each well for a final cell density of 5,000 cells/well. Cell and compound mixtures were incubated at 37° C./5% CO2 for 48 hours. Prior to harvesting cells, EnduRen Live Cell Substrate (Promega, Cat #E6481) was prepared by suspending 3.4 mg into 100 uL of DMSO to generate a 60 mM stock solution. The stock solution was then diluted 1:200 in pre-warmed cDMEM and 10 uL of this diluted solution was added to each well of the 384 well plates. Plates were then centrifuged at 500 rpm briefly and were placed on a plate shaker for 2 min. Following mixing, plates were incubated at […] for 1.5 hours prior to measuring luminescence on an Envision luminometer.

[5] = human respiratory syncytial virus, NHBE, 96 h
[6] = 96 h, H1-HeLa cells, 33° C., read-out: HRV16 HELA EC50
[7] = human respiratory syncytial virus, HEp-2, 96 h
[8] = H1-HeLa cells, 96 h, 33° C.; read-out: HRV16 HELA EC50
[9] = human respiratory syncytial virus, 96 h

`C[C@H](NP(=O)(OC[C@@]1(C#N)O[C@@H](c2ccc3c(N)ncnn23)[C@H](O)[C@@H]1O)Oc1ccccc1)C(=O)OC[C@H]1CC[C@H](C(F)(F)F)CC1` (mixture of isomers) [Example 26, ((1r,4S)-4-(trifluoromethyl)cyclohexyl)methyl ((((2R,3S,4R,5S)-5-(4-aminopyrrolo[2,1-f][1,2,4]triazin-7-yl)-2-cyano-3,4-dihydroxytetrahydrofuran-2-yl)methoxy)(phenoxy)phosphoryl)alaninate] gave an EC50 [1, 5] of 0.025 µM, an EC50 [2, 6] of 0.669 µM and an EC50 [3, 7] of 0.334 µM. It also gave an EC50 [4] of 44.3 µM.

With `CCOC(=O)[C@H](CCCCNC(C)=O)NP(=O)(OC[C@@]1(C#N)O[C@@H](c2ccc3c(N)ncnn23)[C@H](O)[C@@H]1O)Oc1ccccc1` (mixture of isomers) [Example 85, (2S)-ethyl 6-acetamido-2-(((((2R,3S,4R,5S)-5-(4-aminopyrrolo[2,1-f][1,2,4]triazin-7-yl)-2-cyano-3,4-dihydroxytetrahydrofuran-2-yl)methoxy)(phenoxy)phosphoryl)amino)hexanoate] the EC50 [1, 5] was over 5 µM, the EC50 [2, 6] was over 50 µM and the EC50 [3, 7] was over 46.7 µM. It also gave an EC50 [4] of over 50 µM.

`CCC(CC)COC(=O)[C@H](CCCCN)NP(=O)(OC[C@@]1(C#N)O[C@@H](c2ccc3c(N)ncnn23)[C@H](O)[C@@H]1O)Oc1ccccc1` (mixture of isomers) [Example 91, (2S)-2-ethylbutyl 6-amino-2-(((((2R,3S,4R,5S)-5-(4-aminopyrrolo[2,1-f][1,2,4]triazin-7-yl)-2-cyano-3,4-dihydroxytetrahydrofuran-2-yl)methoxy)(phenoxy)phosphoryl)amino)hexanoate] was tested, and the EC50 [1, 5] was over 5 µM, the EC50 [2, 6] was over 50 µM and the EC50 [3, 7] was 12.1 µM. It also gave an EC50 [4] of over 50 µM.

For `COC(=O)[C@H](C)NP(=O)(OC[C@@]1(C#N)O[C@@H](c2ccc3c(N)ncnn23)[C@H](O)[C@@H]1O)Oc1ccc(C[C@H](N)C(=O)OC)cc1` (single isomer, unassigned) [Example 62], the EC50 [1] was over 5 µM, the EC50 [2, 8] was 8.57 µM and the EC50 [3] was 4.53 µM.

Compound `C[C@@H](NP(=O)(OC[C@@]1(C#N)O[C@@H](c2ccc3c(N)ncnn23)[C@H](O)[C@@H]1O)Oc1ccccc1)C(=O)O[C@H]1CC[C@H](C(F)(F)F)CC1` (single isomer, unassigned) [Example 196] has an EC50 [1] of 1.32 µM, an EC50 [2, 8] of 7.54 µM and an EC50 [3] of 4.13 µM.

For `CSCCOP(=O)(N[C@@H](C)C(=O)OC(C)C)OC[C@@]1(C#N)O[C@@H](c2ccc3c(N)ncnn23)[C@H](O)[C@@H]1O` (stereo partly drawn) [Example 40, isopropyl ((((2R,3S,4R,5S)-5-(4-aminopyrrolo[2,1-f][1,2,4]triazin-7-yl)-2-cyano-3,4-dihydroxytetrahydrofuran-2-yl)methoxy)(2-(methylthio)ethoxy)phosphoryl)-L-alaninate], the EC50 [1, 9] was at least 5 µM, the EC50 [2, 8] was over 50 µM and the EC50 [3, 9] was 21.5 µM.

`C[C@H](NP(=O)(OC[C@@]1(C#N)O[C@@H](c2ccc3c(N)ncnn23)[C@H](O)[C@@H]1O)Oc1ccccc1)C(=O)OC1COC1` (stereo partly drawn) [Example 44, oxetan-3-yl ((((2R,3S,4R,5S)-5-(4-aminopyrrolo[2,1-f][1,2,4]triazin-7-yl)-2-cyano-3,4-dihydroxytetrahydrofuran-2-yl)methoxy)(phenoxy)phosphoryl)-L-alaninate] was tested, and the EC50 [1, 5] was 1.8 µM, the EC50 [2, 6] was 4.26 µM and the EC50 [3, 7] was 0.998 µM.

`CCCCCCCCCCCCCCCC(=O)OCC(COP(=O)(O)OC[C@@]1(C#N)O[C@@H](c2ccc3c(N)ncnn23)[C@H](O)[C@@H]1O)OC(=O)CCCCCCCCCCCCCCC` (stereo partly drawn) [Example 152, 3-(((((2R,3S,4R,5S)-5-(4-aminopyrrolo[2,1-f][1,2,4]triazin-7-yl)-2-cyano-3,4-dihydroxytetrahydrofuran-2-yl)methoxy)(hydroxy)phosphoryl)oxy)propane-1,2-diyl dipalmitate] showed an EC50 [1, 9] of 1.78 µM, an EC50 [2, 8] of over 5 µM and an EC50 [3, 9] of over 5 µM.
